Laboratory results: ChEMBL document CHEMBL1127612, “Maleimidoethyl 3-(tri-n-butylstannyl)hippurate: a useful radioiodination reagent for protein radiopharmaceuticals to enhance target selective radioactivity localization” (J Med Chem, 1994)

Legend:
Conditions in all cases: in vivo
Mus musculus [1] = test: Tested for biodistribution of radioactivity after 1 hr of intravenous injection in mice blood; format: ADME, organism-based
Mus musculus [2] = test: Tested for biodistribution of radioactivity after 3h of intravenous injection in mice blood; format: ADME, organism-based
Mus musculus [3] = test: Tested for biodistribution of radioactivity after 48 hr of intravenous injection in mice blood; format: ADME, organism-based
Mus musculus [4] = test: Tested for biodistribution of radioactivity after 6 hr of intravenous injection in mice blood; format: ADME, organism-based
Mus musculus [5] = test: Tested for biodistribution of radioactivity after 72 hr of intravenous injection in mice blood; format: ADME, organism-based
Mus musculus [6] = test: Tested for biodistribution of radioactivity after 48 hr of intravenous injection in mice stomach; format: ADME, organism-based
Mus musculus [7] = test: Tested for biodistribution of radioactivity after 6 hr of intravenous injection in mice intestine; format: ADME, organism-based
Mus musculus [8] = test: Tested for biodistribution of radioactivity after 48 hr of intravenous injection in mice intestine; format: ADME, organism-based
Mus musculus [9] = test: Tested for biodistribution of radioactivity after 48 hr of intravenous injection in mice kidneys; format: ADME, organism-based
Mus musculus [10] = test: Tested for biodistribution of radioactivity after 48 hr of intravenous injection in mice liver; format: ADME, organism-based
Mus musculus [11] = test: Tested for biodistribution of radioactivity after 48 hr of intravenous injection in mice lung; format: ADME, organism-based
Mus musculus [12] = test: Tested for biodistribution of radioactivity after 48 hr of intravenous injection in mice neck; format: ADME, organism-based
Mus musculus [13] = test: Tested for biodistribution of radioactivity after 48 hr of intravenous injection in mice spleen; format: ADME, organism-based
Mus musculus [14] = test: Tested for biodistribution of radioactivity after 6 hr of intravenous injection in mice kidneys; format: ADME, organism-based, Kidney
Mus musculus [15] = test: Tested for biodistribution of radioactivity after 6 hr of intravenous injection in mice liver; format: ADME, organism-based
Mus musculus [16] = test: Tested for biodistribution of radioactivity after 6 hr of intravenous injection in mice lung; format: ADME, organism-based
Mus musculus [17] = test: Tested for biodistribution of radioactivity after 6 hr of intravenous injection in mice neck; format: ADME, organism-based
Mus musculus [18] = test: Tested for biodistribution of radioactivity after 10 min of intravenous injection in mice blood; format: ADME, organism-based
Mus musculus [19] = test: Tested for biodistribution of radioactivity after 10 min of intravenous injection in mice kidneys; format: ADME, organism-based
Mus musculus [20] = test: Tested for biodistribution of radioactivity after 10 min of intravenous injection in mice liver; format: ADME, organism-based
Mus musculus [21] = test: Tested for biodistribution of radioactivity after 10 min of intravenous injection in mice lung; format: ADME, organism-based
Mus musculus [22] = test: Tested for biodistribution of radioactivity after 3h of intravenous injection in mice intestine; format: ADME, organism-based
Mus musculus [23] = test: Tested for biodistribution of radioactivity after 3h of intravenous injection in mice kidneys; format: ADME, organism-based, Kidney
Mus musculus [24] = test: Tested for biodistribution of radioactivity after 3h of intravenous injection in mice lung; format: ADME, organism-based
Mus musculus [25] = test: Tested for biodistribution of radioactivity after 3h of intravenous injection in mice neck; format: ADME, organism-based
Mus musculus [26] = test: Tested for biodistribution of radioactivity after 3h of intravenous injection in mice spleen; format: ADME, organism-based
Mus musculus [27] = test: Tested for biodistribution of radioactivity after 3h of intravenous injection in mice stomach; format: ADME, organism-based
Mus musculus [28] = test: Tested for biodistribution of radioactivity after 10 min of intravenous injection in mice neck; format: ADME, organism-based
Mus musculus [29] = test: Tested for biodistribution of radioactivity after 10 min of intravenous injection in mice spleen; format: ADME, organism-based
Mus musculus [30] = test: Tested for biodistribution of radioactivity after 10 min of intravenous injection in mice stomach; format: ADME, organism-based
Mus musculus [31] = test: Tested for biodistribution of radioactivity after 1 hr of intravenous injection in mice intestine; format: ADME, organism-based
Mus musculus [32] = test: Tested for biodistribution of radioactivity after 1 hr of intravenous injection in mice liver; format: ADME, organism-based
Mus musculus [33] = test: Tested for biodistribution of radioactivity after 1 hr of intravenous injection in mice lung; format: ADME, organism-based
Mus musculus [34] = test: Tested for biodistribution of radioactivity after 6 hr of intravenous injection in mice spleen; format: ADME, organism-based
Mus musculus [35] = test: Tested for biodistribution of radioactivity after 6 hr of intravenous injection in mice stomach; format: ADME, organism-based
Mus musculus [36] = test: Tested for biodistribution of radioactivity after 72 hr of intravenous injection in mice intestine; format: ADME, organism-based
Mus musculus [37] = test: Tested for biodistribution of radioactivity after 72 hr of intravenous injection in mice liver; format: ADME, organism-based
Mus musculus [38] = test: Tested for biodistribution of radioactivity after 72 hr of intravenous injection in mice lung; format: ADME, organism-based
Mus musculus [39] = test: Tested for biodistribution of radioactivity after 72 hr of intravenous injection in mice neck; format: ADME, organism-based
Mus musculus [40] = test: Tested for biodistribution of radioactivity after 72 hr of intravenous injection in mice spleen; format: ADME, organism-based
Mus musculus [41] = test: Tested for biodistribution of radioactivity after 72 hr of intravenous injection in mice stomach; format: ADME, organism-based
Mus musculus [42] = test: Tested for biodistribution of radioactivity after 1 hr of intravenous injection in mice neck; format: ADME, organism-based
Mus musculus [43] = test: Tested for biodistribution of radioactivity after 1 hr of intravenous injection in mice spleen; format: ADME, organism-based
Mus musculus [44] = test: Tested for biodistribution of radioactivity after 1 hr of intravenous injection in mice stomach; format: ADME, organism-based
Mus musculus [45] = test: Tested for biodistribution of radioactivity after 24 hr of intravenous injection in mice feces; format: ADME, organism-based
Mus musculus [46] = test: Tested for biodistribution of radioactivity after 24 hr of intravenous injection in mice intestine; format: ADME, organism-based
Mus musculus [47] = test: Tested for biodistribution of radioactivity after 24 hr of intravenous injection in mice kidneys; format: ADME, organism-based, Kidney
Mus musculus [48] = test: Tested for biodistribution of radioactivity after 24 hr of intravenous injection in mice liver; format: ADME, organism-based
Mus musculus [49] = test: Tested for biodistribution of radioactivity after 24 hr of intravenous injection in mice lung; format: ADME, organism-based
Mus musculus [50] = test: Tested for biodistribution of radioactivity after 24 hr of intravenous injection in mice neck; format: ADME, organism-based
Mus musculus [51] = test: Tested for biodistribution of radioactivity after 24 hr of intravenous injection in mice spleen; format: ADME, organism-based
Mus musculus [52] = test: Tested for biodistribution of radioactivity after 24 hr of intravenous injection in mice stomach; format: ADME, organism-based
Mus musculus [53] = test: Tested for biodistribution of radioactivity after 3h of intravenous injection in mice liver; format: ADME, organism-based
Mus musculus [54] = test: Tested for biodistribution of radioactivity after 1 hr of intravenous injection in mice kidneys; format: ADME, organism-based, Kidney
Mus musculus [55] = test: Tested for biodistribution of radioactivity after 24 hr of intravenous injection in mice urine; format: ADME, organism-based
Mus musculus [56] = test: Tested for biodistribution of radioactivity after 24 hr of intravenous injection in mice blood; format: ADME, organism-based
Mus musculus [57] = test: Tested for biodistribution of radioactivity after 10 min of intravenous injection in mice intestine; format: ADME, organism-based
Mus musculus [58] = test: Tested for biodistribution of radioactivity after 72 hr of intravenous injection in mice kidneys; format: ADME, organism-based

NCCCCC(N)C(=O)NC(=O)c1cccc(I)c1 (stereo unspecified)
Dose/g (Mus musculus [1]): 31.31%
Dose/g (Mus musculus [2]): 26.13%
Dose/g (Mus musculus [3]): 12.64%
Dose/g (Mus musculus [4]): 23.13%
Dose/g (Mus musculus [5]): 11.5%
Dose/organ (Mus musculus [6]): 0.42%
Dose/organ (Mus musculus [7]): 2.43%
Dose/organ (Mus musculus [8]): 0.91%
Dose/organ (Mus musculus [9]): 3.27%
Dose/organ (Mus musculus [10]): 3.84%
Dose/organ (Mus musculus [11]): 4.25%
Dose/organ (Mus musculus [12]): 0.34%
Dose/organ (Mus musculus [13]): 2.35%
Dose/organ (Mus musculus [14]): 6.57%
Dose/organ (Mus musculus [15]): 9.83%
Dose/organ (Mus musculus [16]): 6.9%
Dose/organ (Mus musculus [17]): 0.55%
Dose/organ (Mus musculus [18]): 38.38%
Dose/organ (Mus musculus [19]): 6.31%
Dose/organ (Mus musculus [20]): 15.66%
Dose/organ (Mus musculus [21]): 11.91%
Dose/organ (Mus musculus [22]): 2.88%
Dose/organ (Mus musculus [23]): 7.4%
Dose/organ (Mus musculus [24]): 7.97%
Dose/organ (Mus musculus [25]): 0.72%
Dose/organ (Mus musculus [26]): 5.7%
Dose/organ (Mus musculus [27]): 1.31%
Dose/organ (Mus musculus [28]): 0.66%
Dose/organ (Mus musculus [29]): 7.07%
Dose/organ (Mus musculus [30]): 0.44%
Dose/organ (Mus musculus [31]): 2.03%
Dose/organ (Mus musculus [32]): 14.38%
Dose/organ (Mus musculus [33]): 11.1%
Dose/organ (Mus musculus [34]): 5.48%
Dose/organ (Mus musculus [35]): 1.3%
Dose/organ (Mus musculus [36]): 0.83%
Dose/organ (Mus musculus [37]): 3.34%
Dose/organ (Mus musculus [38]): 3.55%
Dose/organ (Mus musculus [39]): 0.25%
Dose/organ (Mus musculus [40]): 1.83%
Dose/organ (Mus musculus [41]): 0.4%
Dose/organ (Mus musculus [42]): 0.83%
Dose/organ (Mus musculus [43]): 6.38%
Dose/organ (Mus musculus [44]): 0.81%
Dose/organ (Mus musculus [45]): 0.55%
Dose/organ (Mus musculus [46]): 1.06%
Dose/organ (Mus musculus [47]): 4.23%
Dose/organ (Mus musculus [48]): 4.94%
Dose/organ (Mus musculus [49]): 5.55%
Dose/organ (Mus musculus [50]): 0.34%
Dose/organ (Mus musculus [51]): 3.37%
Dose/organ (Mus musculus [52]): 0.49%
Dose/organ (Mus musculus [53]): 11.17%
Dose/organ (Mus musculus [54]): 8.15%
Dose/organ (Mus musculus [55]): 10.09%
Dose/g (Mus musculus [56]): 14.39%
Dose/organ (Mus musculus [57]): 0.85%
Dose/organ (Mus musculus [58]): 2.73%

N[C@@H](CSC1CC(=O)N(CCOC(=O)CNC(=O)c2cccc(I)c2)C1=O)C(=O)O (stereo partly specified)
Dose/g (Mus musculus [1]): 29.3%
Dose/g (Mus musculus [2]): 25.11%
Dose/g (Mus musculus [3]): 5.78%
Dose/g (Mus musculus [4]): 20.31%
Dose/g (Mus musculus [5]): 4.22%
Dose/organ (Mus musculus [6]): 0.2%
Dose/organ (Mus musculus [7]): 1.27%
Dose/organ (Mus musculus [8]): 0.4%
Dose/organ (Mus musculus [9]): 1.12%
Dose/organ (Mus musculus [10]): 1.53%
Dose/organ (Mus musculus [11]): 1.98%
Dose/organ (Mus musculus [12]): 0.16%
Dose/organ (Mus musculus [13]): 0.92%
Dose/organ (Mus musculus [14]): 4.45%
Dose/organ (Mus musculus [15]): 5.39%
Dose/organ (Mus musculus [16]): 7.6%
Dose/organ (Mus musculus [17]): 0.45%
Dose/organ (Mus musculus [18]): 33.64%
Dose/organ (Mus musculus [19]): 6.08%
Dose/organ (Mus musculus [20]): 9.81%
Dose/organ (Mus musculus [21]): 10.37%
Dose/organ (Mus musculus [22]): 1.93%
Dose/organ (Mus musculus [23]): 5%
Dose/organ (Mus musculus [24]): 8.06%
Dose/organ (Mus musculus [25]): 0.51%
Dose/organ (Mus musculus [26]): 3.67%
Dose/organ (Mus musculus [27]): 1.04%
Dose/organ (Mus musculus [28]): 0.34%
Dose/organ (Mus musculus [29]): 7.15%
Dose/organ (Mus musculus [30]): 0.54%
Dose/organ (Mus musculus [31]): 1.96%
Dose/organ (Mus musculus [32]): 8.51%
Dose/organ (Mus musculus [33]): 7.08%
Dose/organ (Mus musculus [34]): 3.19%
Dose/organ (Mus musculus [35]): 0.84%
Dose/organ (Mus musculus [36]): 0.28%
Dose/organ (Mus musculus [37]): 1.05%
Dose/organ (Mus musculus [38]): 1.52%
Dose/organ (Mus musculus [39]): 0.09%
Dose/organ (Mus musculus [40]): 0.49%
Dose/organ (Mus musculus [41]): 0.14%
Dose/organ (Mus musculus [42]): 0.75%
Dose/organ (Mus musculus [43]): 4.84%
Dose/organ (Mus musculus [44]): 0.92%
Dose/organ (Mus musculus [45]): 0.89%
Dose/organ (Mus musculus [46]): 0.67%
Dose/organ (Mus musculus [47]): 2.08%
Dose/organ (Mus musculus [48]): 2.46%
Dose/organ (Mus musculus [49]): 4.06%
Dose/organ (Mus musculus [50]): 0.32%
Dose/organ (Mus musculus [51]): 1.41%
Dose/organ (Mus musculus [52]): 0.28%
Dose/organ (Mus musculus [53]): 6.43%
Dose/organ (Mus musculus [54]): 5.35%
Dose/organ (Mus musculus [55]): 23.39%
Dose/g (Mus musculus [56]): 9.64%
Dose/organ (Mus musculus [57]): 0.8%
Dose/organ (Mus musculus [58]): 0.82%
